This test concerns the target T1, Human CaV2.2 channels (Homo sapiens, UniProt Q00975).
T1 construct: expressed in transfected cells; Kir2.3 also stably co-expressed
The experiment in a line: Fluorescence assay for CaV2.2 channels using potassium depolarization to induce channel opening (FLIPR, Fluo 4). The format is cell-based. As to conditions: 30 mM KCl assay buffer (inactivated channel state), HEK293 cells; for inhibition at 3 µM: HEK293, 3 μM test compound, read-out: Activity Category: %-Inhib (CaV2.2) @3 μM @30 mM KCl; for Activity Category: %-Inhib (CaV2.2) @3 μM @30 mM KCl: 3 μM test compound. The gist of the method:
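HEK293 cells stably co-expressing human CaV2.2 with α2δ and β subunits plus Kir2.3, Fluo-4 loaded; compounds preincubated 15 min at 25 °C in 1 mM or 30 mM KCl buffer (inactivated state), pH 7.4. Depolarized by KCl addition; baseline-normalized peak fluorescence (ex 480/em 535 nm) gave inhibition.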

Some results are limits rather than exact numbers.

T1 sequence (Q00975 whole entry): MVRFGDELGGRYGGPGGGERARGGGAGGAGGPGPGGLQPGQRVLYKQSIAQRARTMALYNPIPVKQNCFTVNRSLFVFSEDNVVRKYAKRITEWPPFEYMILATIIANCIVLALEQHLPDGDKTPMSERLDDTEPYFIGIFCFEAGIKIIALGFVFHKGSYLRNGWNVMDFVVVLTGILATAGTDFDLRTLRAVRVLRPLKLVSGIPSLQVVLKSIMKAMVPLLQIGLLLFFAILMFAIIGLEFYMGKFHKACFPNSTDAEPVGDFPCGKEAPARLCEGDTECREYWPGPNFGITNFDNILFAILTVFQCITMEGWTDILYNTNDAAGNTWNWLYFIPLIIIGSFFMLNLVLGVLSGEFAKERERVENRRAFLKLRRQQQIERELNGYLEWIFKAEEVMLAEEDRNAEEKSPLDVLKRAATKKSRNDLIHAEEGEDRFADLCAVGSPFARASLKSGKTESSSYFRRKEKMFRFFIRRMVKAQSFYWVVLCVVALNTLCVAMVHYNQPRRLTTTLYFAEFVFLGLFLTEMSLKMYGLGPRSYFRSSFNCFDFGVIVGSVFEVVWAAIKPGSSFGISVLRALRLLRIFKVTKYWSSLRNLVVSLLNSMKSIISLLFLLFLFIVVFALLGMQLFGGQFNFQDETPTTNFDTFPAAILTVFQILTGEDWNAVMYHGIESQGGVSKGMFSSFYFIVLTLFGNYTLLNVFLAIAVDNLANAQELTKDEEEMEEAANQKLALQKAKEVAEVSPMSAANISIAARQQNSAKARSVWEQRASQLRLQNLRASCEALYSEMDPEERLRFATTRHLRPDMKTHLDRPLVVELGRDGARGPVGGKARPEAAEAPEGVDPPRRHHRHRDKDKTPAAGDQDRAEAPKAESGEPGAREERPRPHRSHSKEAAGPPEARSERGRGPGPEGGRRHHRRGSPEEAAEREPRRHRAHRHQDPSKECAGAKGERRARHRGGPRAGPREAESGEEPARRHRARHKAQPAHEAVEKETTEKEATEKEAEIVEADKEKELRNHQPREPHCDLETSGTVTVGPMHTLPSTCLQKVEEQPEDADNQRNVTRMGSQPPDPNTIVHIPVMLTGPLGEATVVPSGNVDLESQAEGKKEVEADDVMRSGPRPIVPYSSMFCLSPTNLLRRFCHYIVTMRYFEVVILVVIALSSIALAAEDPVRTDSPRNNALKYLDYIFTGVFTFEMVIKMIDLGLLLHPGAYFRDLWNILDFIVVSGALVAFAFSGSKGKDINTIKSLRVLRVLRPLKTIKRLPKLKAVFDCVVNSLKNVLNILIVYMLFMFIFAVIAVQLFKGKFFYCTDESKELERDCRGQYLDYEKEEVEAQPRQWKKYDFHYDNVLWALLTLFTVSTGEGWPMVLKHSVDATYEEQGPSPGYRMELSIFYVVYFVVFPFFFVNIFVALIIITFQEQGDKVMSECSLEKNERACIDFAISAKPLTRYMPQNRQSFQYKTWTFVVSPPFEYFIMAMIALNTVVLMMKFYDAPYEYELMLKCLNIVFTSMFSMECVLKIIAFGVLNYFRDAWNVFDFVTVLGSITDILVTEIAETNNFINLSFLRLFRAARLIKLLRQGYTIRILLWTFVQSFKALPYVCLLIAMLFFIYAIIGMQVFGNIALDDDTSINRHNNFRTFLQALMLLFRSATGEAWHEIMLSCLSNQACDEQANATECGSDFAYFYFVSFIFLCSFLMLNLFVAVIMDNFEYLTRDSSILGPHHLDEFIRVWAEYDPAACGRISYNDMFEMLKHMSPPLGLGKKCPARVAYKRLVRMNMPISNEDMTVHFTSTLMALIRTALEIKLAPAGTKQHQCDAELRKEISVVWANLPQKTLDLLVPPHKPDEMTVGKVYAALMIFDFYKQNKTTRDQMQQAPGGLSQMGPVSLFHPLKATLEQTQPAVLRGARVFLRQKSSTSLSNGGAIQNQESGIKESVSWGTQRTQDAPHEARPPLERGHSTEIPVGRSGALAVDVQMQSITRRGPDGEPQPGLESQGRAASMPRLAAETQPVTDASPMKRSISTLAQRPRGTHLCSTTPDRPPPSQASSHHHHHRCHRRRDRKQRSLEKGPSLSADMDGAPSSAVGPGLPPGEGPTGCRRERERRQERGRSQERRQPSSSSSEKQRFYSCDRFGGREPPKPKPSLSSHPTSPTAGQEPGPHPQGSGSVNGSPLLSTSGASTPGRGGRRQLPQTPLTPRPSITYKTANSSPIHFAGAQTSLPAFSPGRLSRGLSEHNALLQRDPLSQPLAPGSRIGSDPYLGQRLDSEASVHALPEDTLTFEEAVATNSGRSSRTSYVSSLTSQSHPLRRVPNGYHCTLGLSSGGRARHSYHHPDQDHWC

For the molecule `CC1(S(=O)(=O)c2cccc(C(F)(F)F)c2)CCOC(c2ccc3c(c2)OC(F)(F)O3)C1` (centres unmarked) [SC-259, 2,2-Difluoro-5-[4-methyl-4-[[3-(trifluoromethyl)phenyl]sulfonyl]-tetrahydro-pyran-2-yl]-1,3-benzodioxole], the inhibition at 3 µM is above 95%.
With `CC1(S(=O)(=O)c2cccc(C(F)(F)F)c2)CCOC(c2ccc(C#N)c(S(C)(=O)=O)c2)C1` (centres unmarked) [SC-261, 2-Methylsulfonyl-4-[4-methyl-4-[[3-(trifluoromethyl)phenyl]sulfonyl]-tetrahydro-pyran-2-yl]-benzonitrile], the inhibition at 3 µM was above 95%.
`CC1(S(=O)(=O)c2cccc(C(F)(F)F)c2)CCOC(c2ccc(C#N)c(S(C)(=O)=O)c2)C1` (centres unmarked) [SC-262, 2-Methylsulfonyl-4-[4-methyl-4-[[3-(trifluoromethyl)phenyl]sulfonyl]-tetrahydro-pyran-2-yl]-benzonitrile]: the “Activity Category: %-Inhib (CaV2.2) @3 μM @30 mM KCl” value (shortened to “Activity Category: %-Inhib”) is recorded as “B (%-Inhibition >75% up to ≦95%)”.
For the molecule `CC1(S(=O)(=O)c2cccc(C(F)(F)F)c2)CCOC(c2ccc3c(c2)CCO3)C1` (centres unmarked) [SC-263, 5-[4-Methyl-4-[[3-(trifluoromethyl)phenyl]sulfonyl]-tetrahydro-pyran-2-yl]-2,3-dihydro-benzofuran], the inhibition at 3 µM is above 95%.
With `CC1(S(=O)(=O)c2cccc(OC(F)(F)F)c2)CCOC(c2ccc(S(C)(=O)=O)c(F)c2)C1` (centres unmarked) [SC-265, 2-(3-Fluoro-4-methylsulfonyl-phenyl)-4-methyl-4-[[3-(trifluoromethyloxy)-phenyl]sulfonyl]-tetrahydro-pyran], the inhibition at 3 µM is 75 to 95%.
Regarding `CC1(S(=O)(=O)c2cccc(OC(F)(F)F)c2)CCOC(c2ccc(S(C)(=O)=O)c(F)c2)C1` (centres unmarked) [SC-266, 2-(3-Fluoro-4-methylsulfonyl-phenyl)-4-methyl-4-[[3-(trifluoromethyloxy)-phenyl]sulfonyl]-tetrahydro-pyran], the “Activity Category: %-Inhib” value is given as “A (%-Inhibition >95%)”.
Regarding `CC1(S(=O)(=O)c2cccc(C(F)(F)F)c2)CCOC(c2ccc(S(C)(=O)=O)c(C#N)c2)C1` (centres unmarked) [SC-267, 2-Methylsulfonyl-5-[4-methyl-4-[[3-(trifluoromethyl)phenyl]sulfonyl]-tetrahydro-pyran-2-yl]-benzonitrile], the inhibition at 3 µM is above 95%.
For `CC1(S(=O)(=O)c2cccc(C(F)(F)F)c2)CCOC(c2ccc(S(C)(=O)=O)c(C#N)c2)C1` (centres unmarked) [SC-268, 2-Methylsulfonyl-5-[4-methyl-4-[[3-(trifluoromethyl)phenyl]sulfonyl]-tetrahydro-pyran-2-yl]-benzonitrile], the “Activity Category: %-Inhib” value is “B (%-Inhibition >75% up to ≦95%)”.
With `CC1(S(=O)(=O)c2cccc(C(F)F)c2)CCOC(c2ccc(S(C)(=O)=O)c(F)c2)C1` (centres unmarked) [SC-269, 4-[[3-(Difluoro-methyl)-phenyl]sulfonyl]-2-(3-fluoro-4-methylsulfonyl-phenyl)-4-methyl-tetrahydro-pyran], the “Activity Category: %-Inhib” value is given as “C (%-Inhibition >40% up to ≦75%)”.
On the same count and under the same terms, then `CC1(S(=O)(=O)c2cccc(C(F)F)c2)CCOC(c2ccc(S(C)(=O)=O)c(F)c2)C1` (centres unmarked) [SC-270, 4-[[3-(Difluoro-methyl)-phenyl]sulfonyl]-2-(3-fluoro-4-methylsulfonyl-phenyl)-4-methyl-tetrahydro-pyran], with “B (%-Inhibition >75% up to ≦95%)”.
In the case of `CC(C)c1cccc(S(=O)(=O)C2(C)CCOC(c3ccc(S(C)(=O)=O)c(F)c3)C2)c1` (centres unmarked) [SC-271, 2-(3-Fluoro-4-methylsulfonyl-phenyl)-4-[(3-isopropyl-phenyl)sulfonyl]-4-methyl-tetrahydro-pyran], the inhibition at 3 µM is above 95%.
Same read-out and setting: then `CC1(S(=O)(=O)c2cccc(C(F)(F)F)c2)CCOC(c2cc(S(C)(=O)=O)ccc2C#N)C1` (centres unmarked) [SC-273, 4-Methylsulfonyl-2-[4-methyl-4-[[3-(trifluoromethyl)phenyl]sulfonyl]-tetrahydro-pyran-2-yl]-benzonitrile], with 75 to 95%; and `CC1(S(=O)(=O)c2cccc(C(F)(F)F)c2)CCOC(c2ccc(S(C)(=O)=O)cc2C#N)C1` (centres unmarked) [SC-275, 5-Methylsulfonyl-2-[4-methyl-4-[[3-(trifluoromethyl)phenyl]sulfonyl]-tetrahydro-pyran-2-yl]-benzonitrile], with 75 to 95%.
For `CC1(S(=O)(=O)c2cccc(C(F)(F)F)c2)CCOC(c2ccc(S(C)(=O)=O)cc2C#N)C1` (centres unmarked) [SC-276, 5-Methylsulfonyl-2-[4-methyl-4-[[3-(trifluoromethyl)phenyl]sulfonyl]-tetrahydro-pyran-2-yl]-benzonitrile], the “Activity Category: %-Inhib” value was “A (%-Inhibition >95%)”.
For `CC1(S(=O)(=O)c2cccc(C(F)(F)F)c2)CCOC(c2cc(S(C)(=O)=O)ccc2C2CC2)C1` (centres unmarked) [SC-277, 2-(2-Cyclopropyl-5-methylsulfonyl-phenyl)-4-methyl-4-[[3-(trifluoromethyl)phenyl]sulfonyl]-tetrahydro-pyran], the inhibition at 3 µM is above 95%.
`CC1(S(=O)(=O)c2cccc(C(F)(F)F)c2)CCOC(c2cc(S(C)(=O)=O)ccc2C2CC2)C1` (centres unmarked) [SC-278, 2-(2-Cyclopropyl-5-methylsulfonyl-phenyl)-4-methyl-4-[[3-(trifluoromethyl)phenyl]sulfonyl]-tetrahydro-pyran]: the “Activity Category: %-Inhib” value is reported as “B (%-Inhibition >75% up to ≦95%)”.
On to `Cc1nc2cc(C3CC(C)(S(=O)(=O)c4cccc(C(F)(F)F)c4)CCO3)ccc2o1` (centres unmarked) [SC-279, 2-Methyl-5-[4-methyl-4-[[3-(trifluoromethyl)phenyl]sulfonyl]-tetrahydro-pyran-2-yl]-benzooxazole], for which the inhibition at 3 µM lay within 75 to 95%.
With `Cc1nc2cc(C3CC(C)(S(=O)(=O)c4cccc(C(F)(F)F)c4)CCO3)ccc2o1` (centres unmarked) [SC-280, 2-Methyl-5-[4-methyl-4-[[3-(trifluoromethyl)phenyl]sulfonyl]-tetrahydro-pyran-2-yl]-benzooxazole], the “Activity Category: %-Inhib” value is listed as “A (%-Inhibition >95%)”.
Still for that read-out and setting: the value for `C[S+]([O-])c1ccc(C2CC(C)(S(=O)(=O)c3cccc(C(F)(F)F)c3)CCO2)c(F)c1` (centres unmarked) [SC-281, 2-[2-Fluoro-4-(methylsulfinyl)-phenyl]-4-methyl-4-[[3-(trifluoromethyl)phenyl]sulfonyl]-tetrahydro-pyran] was “B (%-Inhibition >75% up to ≦95%)”; that for `C[S+]([O-])c1ccc(C2CC(C)(S(=O)(=O)c3cccc(C(F)(F)F)c3)CCO2)c(F)c1` (centres unmarked) [SC-282, 2-[2-Fluoro-4-(methylsulfinyl)-phenyl]-4-methyl-4-[[3-(trifluoromethyl)phenyl]sulfonyl]-tetrahydro-pyran] was “B (%-Inhibition >75% up to ≦95%)”; that for `C[S+]([O-])c1ccc(C2CC(C)(S(=O)(=O)c3cccc(C(F)(F)F)c3)CCO2)c(F)c1` (centres unmarked) [SC-283, 2-[2-Fluoro-4-(methylsulfinyl)-phenyl]-4-methyl-4-[[3-(trifluoromethyl)phenyl]sulfonyl]-tetrahydro-pyran] was “B (%-Inhibition >75% up to ≦95%)”.
The same measure, in the same setting: the value for `C[S+]([O-])c1ccc(C2CC(C)(S(=O)(=O)c3cccc(C(F)(F)F)c3)CCO2)c(F)c1` (centres unmarked) [SC-284, 2-[2-Fluoro-4-(methylsulfinyl)-phenyl]-4-methyl-4-[[3-(trifluoromethyl)phenyl]sulfonyl]-tetrahydro-pyran] was “C (%-Inhibition >40% up to ≦75%)”.
Turning to `CCc1nc2cc(C3CC(C)(S(=O)(=O)c4cccc(C(F)(F)F)c4)CCO3)ccc2o1` (centres unmarked) [SC-285, 2-Ethyl-5-[4-methyl-4-[[3-(trifluoromethyl)phenyl]sulfonyl]-tetrahydro-pyran-2-yl]-benzooxazole], the inhibition at 3 µM was in the range of 75 to 95%.
The same measure, in the same setting: the value for `CC1(S(=O)(=O)c2cccc(C(F)(F)F)c2)CCOC(c2ccc(S(=O)(=O)CCO)cc2)C1` (centres unmarked) [SC-286, 2-[[4-[4-Methyl-4-[[3-(trifluoromethyl)phenyl]sulfonyl]-tetrahydro-pyran-2-yl]-phenyl]sulfonyl]-ethanol] was 75 to 95%.
Regarding `C[S+]([O-])c1cc(Cl)ccc1C1CC(C)(S(=O)(=O)c2cccc(C(F)(F)F)c2)CCO1` (centres unmarked) [SC-288, 2-[4-Chloro-2-(methylsulfinyl)-phenyl]-4-methyl-4-[[3-(trifluoromethyl)phenyl]sulfonyl]-tetrahydro-pyran], the “Activity Category: %-Inhib” value was “B (%-Inhibition >75% up to ≦95%)”.
On the same count and under the same terms, then `C[S+]([O-])c1cc(Cl)ccc1C1CC(C)(S(=O)(=O)c2cccc(C(F)(F)F)c2)CCO1` (centres unmarked) [SC-289, 2-[4-Chloro-2-(methylsulfinyl)-phenyl]-4-methyl-4-[[3-(trifluoromethyl)phenyl]sulfonyl]-tetrahydro-pyran], with “C (%-Inhibition >40% up to ≦75%)”.
Consider `C[S+]([O-])c1cc(Cl)ccc1C1CC(C)(S(=O)(=O)c2cccc(C(F)(F)F)c2)CCO1` (centres unmarked) [SC-290, 2-[4-Chloro-2-(methylsulfinyl)-phenyl]-4-methyl-4-[[3-(trifluoromethyl)phenyl]sulfonyl]-tetrahydro-pyran], for which the “Activity Category: %-Inhib” value is listed as “B (%-Inhibition >75% up to ≦95%)”.
Same read-out and setting: then `C[S+]([O-])c1cc(Cl)ccc1C1CC(C)(S(=O)(=O)c2cccc(C(F)(F)F)c2)CCO1` (centres unmarked) [SC-291, 2-[4-Chloro-2-(methylsulfinyl)-phenyl]-4-methyl-4-[[3-(trifluoromethyl)phenyl]sulfonyl]-tetrahydro-pyran], with “A (%-Inhibition >95%)”.
For `CC1(S(=O)(=O)c2cccc(C(F)(F)F)n2)CCOC(c2ccc(S(C)(=O)=O)cc2)C1` (centres unmarked) [SC-293, 2-[[4-Methyl-2-(4-methylsulfonyl-phenyl)-tetrahydro-pyran-4-yl]sulfonyl]-6-(trifluoromethyl)-pyridine], the inhibition at 3 µM lay in the range of 40 to 75%.

Source of the values: patent US9896440B2, “Aryl substituted heterocyclyl sulfones” (GRÜNENTHAL GMBH, priority 2014, dated 2018).
